Test results reported in paper PMC10216180, “Dopamine Receptor Ligand Selectivity—An In Silico/In Vitro Insight” (Biomedicines, 2023).
Marks after values point to notes of the source that are not given here.

Target: T1, D2R (Homo sapiens, UniProt P14416)
T1 construct: expressed in transfected cells; host or cells: D2R carrier cells (not described here)
Experiment: HTRF Ki determination at D2R
Type: binding
Details: Ki assumed ≥100 µM where n.d.
Method: (§1) All HTRF assays were performed using an HTRF-compatible plate reader (model Tecan Spark (Tecan Group, Männedorf, Switzerland)). The respective settings were specifically modified and optimized for the determination of D2R ligand-binding affinities. Binding affinities were determined using the same settings for measurements with D1R and D3R carrier cells. […] Fluorophores were excited at 320 nm. A dichroic 510 mirror was used, while lag and integration times of 100 and 400 µs were applied, respectively. Flashes were set to 75. Electronic gain was automatically optimized, while the z-position was optimized based on the well with the highest expected signal. […] The first plate was used to determine the gain and the z-position. Subsequently, the determined values were set manually for the second plate to enable direct comparison between the different plates.
The characterization of the D2R carrier cells is detailed in [42].
(§2) The Ki was determined in duplicates following the SOP available from PerkinElmer/cisbio and as described in Section 2.10.
(§3) Saturation binding curves were processed and visualized in GraphPad Prism 8 (Nonlinear regression (curve fit), One site—Fit logIC50 was performed using GraphPad Prism version 8.2.1 for Windows, GraphPad Software, San Diego. CA, USA). Molecular docking was performed in GOLD 5.8.0 (CCDC, Cambridge, United Kingdom). […] Two-dimensional structures of all shown compounds were generated using ChemDraw version 19.0 (PerkinElmer, Waltham, MA, USA).

T1 sequence (P14416 whole entry): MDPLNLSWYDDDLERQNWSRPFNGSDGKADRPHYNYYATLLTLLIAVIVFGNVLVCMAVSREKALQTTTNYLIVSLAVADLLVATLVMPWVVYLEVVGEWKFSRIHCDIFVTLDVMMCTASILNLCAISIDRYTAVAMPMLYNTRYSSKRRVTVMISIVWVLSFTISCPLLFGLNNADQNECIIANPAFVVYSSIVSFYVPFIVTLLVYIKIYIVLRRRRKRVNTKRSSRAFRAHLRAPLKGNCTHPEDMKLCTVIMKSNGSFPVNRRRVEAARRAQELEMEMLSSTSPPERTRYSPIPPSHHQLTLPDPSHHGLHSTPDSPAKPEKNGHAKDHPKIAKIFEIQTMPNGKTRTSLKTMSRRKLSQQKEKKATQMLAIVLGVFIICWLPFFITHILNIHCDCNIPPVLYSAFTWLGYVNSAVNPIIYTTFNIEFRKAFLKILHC

Row | SMILES | Selectivity D1R/D2R (Ki fold-difference)
1 | COc1ccccc1N1CCN(CCCCNC(=O)c2ccc(Cl)cc2)CC1 [Compound 10] | 3.91
2 | NS(=O)(=O)c1ccc(CCNCc2ccc(-c3cc(Cl)ccc3Cl)o2)cc1 [Compound 3] | >21.4 ^b
3 | CN1CCN(C2Cc3ccc(O)cc3Sc3ccc(Cl)cc32)CC1 (stereo not drawn) [Compound 2] | 1.95
4 | O[C@H](CNCCNc1ccc(C(F)(F)F)cn1)CSc1ccc(F)cc1 [Compound 7] | 3.00

Results, then the compound that gave them:

Row | Selectivity D1R/D2R (Ki fold-difference) | SMILES
5 | 4.28 | CCN(CCC(=O)Nc1cccc(OC)c1)Cc1ccccc1 [Compound 5]
6 | 5.77 | O=C(CCN1CCN(c2ccccc2F)CC1)Nc1cccc(F)c1 [Compound 6]
7 | 28.6 | NC(=O)c1ccccc1OCCCN1CCN(c2ccccc2)CC1 [Compound 9]

Same assay, conditions: n = 6, ± SD; n.d. = not determinable (highest concentration 100 µM)

Row | SMILES | Ki [nM]
8 | COc1ccccc1N1CCN(CCCCNC(=O)c2ccc(Cl)cc2)CC1 [Compound 10] | 610 ± 85

Target: T2, D3R (Homo sapiens, UniProt P35462)
T2 sequence (P35462 whole entry): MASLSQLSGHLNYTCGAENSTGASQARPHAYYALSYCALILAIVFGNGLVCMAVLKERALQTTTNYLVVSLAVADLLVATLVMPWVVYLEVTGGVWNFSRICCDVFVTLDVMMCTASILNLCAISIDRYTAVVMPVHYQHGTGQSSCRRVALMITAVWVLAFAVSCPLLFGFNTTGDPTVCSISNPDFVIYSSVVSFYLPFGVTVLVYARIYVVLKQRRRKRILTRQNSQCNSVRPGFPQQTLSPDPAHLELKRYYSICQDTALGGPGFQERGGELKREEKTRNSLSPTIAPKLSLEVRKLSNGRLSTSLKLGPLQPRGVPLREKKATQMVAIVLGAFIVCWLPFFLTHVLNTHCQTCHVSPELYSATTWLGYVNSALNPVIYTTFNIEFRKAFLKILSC
Experiment: HTRF Ki determination at D3R
Type: binding
Details: not given
Method: as §1
The cells used for the subsequent screening and detailed investigation of D1R and D3R ligands were acquired from PerkinElmer/cisbio (Waltham, MA, USA; Tag-lite Dopamine D1 or D3a-labeled Cells, ready-to-use (transformed and labeled), 200 tests; C1TT1D1 and C1TT1D3A, respectively). The cells were stored in liquid nitrogen until further use. […] The assay was conducted according to the standard operation protocol (SOP) available from PerkinElmer/cisbio. The 96-well plates were incubated at room temperature for 2 h. The 96-well plates were read as described in Section 2.10. The respective concentrations of the dilution series were performed in triplicates. In total, Kd determination was performed twice.
as §2, §3

Row | SMILES | Ki [nM]
9 | COc1ccccc1N1CCN(CCCCNC(=O)c2ccc(Cl)cc2)CC1 [Compound 10] | 2.3

Same assay, conditions: Ki assumed ≥100 µM where n.d.

Row | SMILES | Selectivity D1R/D3R (Ki fold-difference) | Selectivity D2R/D3R (Ki fold-difference)
10 | COc1ccccc1N1CCN(CCCCNC(=O)c2ccc(Cl)cc2)CC1 [Compound 10] | 1031.4 | 263.7
11 | NS(=O)(=O)c1ccc(CCNCc2ccc(-c3cc(Cl)ccc3Cl)o2)cc1 [Compound 3] |  | 12.2
12 | CN1CCN(C2Cc3ccc(O)cc3Sc3ccc(Cl)cc32)CC1 (stereo not drawn) [Compound 2] | 3.23 | 1.66
13 | O[C@H](CNCCNc1ccc(C(F)(F)F)cn1)CSc1ccc(F)cc1 [Compound 7] | 12.3 | 4.11

Now from value to compound:

Row | Selectivity D1R/D3R (Ki fold-difference) | Selectivity D2R/D3R (Ki fold-difference) | SMILES
14 | 20.8 | 4.86 | CCN(CCC(=O)Nc1cccc(OC)c1)Cc1ccccc1 [Compound 5]
15 | 20.7 | 3.56 | O=C(CCN1CCN(c2ccccc2F)CC1)Nc1cccc(F)c1 [Compound 6]
16 | 395.1 | 13.8 | NC(=O)c1ccccc1OCCCN1CCN(c2ccccc2)CC1 [Compound 9]

Same assay, conditions: n = 6, ± SD

Row | SMILES | Ki [nM]
17 | COc1ccccc1N1CCN(CCCCNC(=O)c2ccc(Cl)cc2)CC1 [Compound 10] | 2 ± 1
18 | NS(=O)(=O)c1ccc(CCNCc2ccc(-c3cc(Cl)ccc3Cl)o2)cc1 [Compound 3] | 380 ± 22
19 | CN1CCN(C2Cc3ccc(O)cc3Sc3ccc(Cl)cc32)CC1 (stereo not drawn) [Compound 2] | 3 ± 1
20 | O[C@H](CNCCNc1ccc(C(F)(F)F)cn1)CSc1ccc(F)cc1 [Compound 7] | 680 ± 68

Results, then the compound that gave them:

Row | Ki [nM] | SMILES
21 | 2250 ± 910 | CCN(CCC(=O)Nc1cccc(OC)c1)Cc1ccccc1 [Compound 5]
22 | 370 ± 280 | O=C(CCN1CCN(c2ccccc2F)CC1)Nc1cccc(F)c1 [Compound 6]
23 | 24 ± 3 | NC(=O)c1ccccc1OCCCN1CCN(c2ccccc2)CC1 [Compound 9]

Target: T1, D2R
Experiment: not given
Design: method as in PMID 35889317
Details: n = 6, ± SD; values from previous experiments; cited from earlier work

Row | SMILES | Ki [nM]
24 | CCN(CCC(=O)Nc1cccc(OC)c1)Cc1ccccc1 [Compound 5] | 11000 ± 4430
25 | NS(=O)(=O)c1ccc(CCNCc2ccc(-c3cc(Cl)ccc3Cl)o2)cc1 [Compound 3] | 4660 ± 2690
26 | O=C(CCN1CCN(c2ccccc2F)CC1)Nc1cccc(F)c1 [Compound 6] | 1350 ± 630
27 | NC(=O)c1ccccc1OCCCN1CCN(c2ccccc2)CC1 [Compound 9] | 330 ± 93
28 | CN1CCN(C2Cc3ccc(O)cc3Sc3ccc(Cl)cc32)CC1 (stereo not drawn) [Compound 2] | 5 ± 2
29 | O[C@H](CNCCNc1ccc(C(F)(F)F)cn1)CSc1ccc(F)cc1 [Compound 7] | 2780 ± 1060

Target: T2, D3R
Experiment: HTRF competitive binding screening (NDF) at D3R carrier cells
Details: 10 µM, n = 4, fluorescence decrease normalized to the control
Method: as §1
(§4) The cells used for the subsequent screening and detailed investigation of D1R and D3R ligands were acquired from PerkinElmer/cisbio (Waltham, MA, USA; Tag-lite Dopamine D1 or D3a-labeled Cells, ready-to-use (transformed and labeled), 200 tests; C1TT1D1 and C1TT1D3A, respectively). The cells were stored in liquid nitrogen until further use. Fluorescent-labelled ligands (Dopamine D2 Receptor red antagonist Fluorescent Ligand (L0002RED), stored at −20 °C and Dopamine D1 Receptor green antagonist (L0031GRE), stored at −20 °C), assay buffer (5Xconcentrate Tag-lite Buffer (TLB), 100 mL, stored at +4 °C; LABMED), and 96-well plates (HTRF 96-well low-volume white plate; 66PL96005) required for the in vitro assay were also acquired from PerkinElmer/cisbio. The assay was conducted according to the standard operation protocol (SOP) available from PerkinElmer/cisbio. The 96-well plates were incubated at room temperature for 2 h. The 96-well plates were read as described in Section 2.10. The respective concentrations of the dilution series were performed in triplicates. In total, Kd determination was performed twice.
(§5) The investigated compounds were taken from a previous pharmacophore-based virtual screening study described in Zell et al.. The activities of all compounds were investigated via a competitive binding (in comparison with a fluorescence-labeled ligand) of the respective compounds at D1R/D3R, utilizing an HTRF assay using a screening concentration of 10 µM.

Row | SMILES | Normalized Decrease in Fluorescence (NDF) ± SD, D3R
30 | COc1ccccc1N1CCN(CCCCNC(=O)c2ccc(Cl)cc2)CC1 [Compound 10] | 4.09 ± 1.07
31 | NS(=O)(=O)c1ccc(CCNCc2ccc(-c3cc(Cl)ccc3Cl)o2)cc1 [Compound 3] | 3.96 ± 1.10
32 | CN1CCN(C2Cc3ccc(O)cc3Sc3ccc(Cl)cc32)CC1 (stereo not drawn) [Compound 2] | 4.16 ± 1.08
33 | O[C@H](CNCCNc1ccc(C(F)(F)F)cn1)CSc1ccc(F)cc1 [Compound 7] | 3.79 ± 0.70

The remaining lines, values ahead:

Row | Normalized Decrease in Fluorescence (NDF) ± SD, D3R | SMILES
34 | 2.65 ± 0.64 | CCN(CCC(=O)Nc1cccc(OC)c1)Cc1ccccc1 [Compound 5]
35 | 4.21 ± 0.79 | O=C(CCN1CCN(c2ccccc2F)CC1)Nc1cccc(F)c1 [Compound 6]
36 | 3.97 ± 0.78 | NC(=O)c1ccccc1OCCCN1CCN(c2ccccc2)CC1 [Compound 9]

Target: T3, D1R (Homo sapiens, UniProt P21728)
T3 sequence (P21728 whole entry): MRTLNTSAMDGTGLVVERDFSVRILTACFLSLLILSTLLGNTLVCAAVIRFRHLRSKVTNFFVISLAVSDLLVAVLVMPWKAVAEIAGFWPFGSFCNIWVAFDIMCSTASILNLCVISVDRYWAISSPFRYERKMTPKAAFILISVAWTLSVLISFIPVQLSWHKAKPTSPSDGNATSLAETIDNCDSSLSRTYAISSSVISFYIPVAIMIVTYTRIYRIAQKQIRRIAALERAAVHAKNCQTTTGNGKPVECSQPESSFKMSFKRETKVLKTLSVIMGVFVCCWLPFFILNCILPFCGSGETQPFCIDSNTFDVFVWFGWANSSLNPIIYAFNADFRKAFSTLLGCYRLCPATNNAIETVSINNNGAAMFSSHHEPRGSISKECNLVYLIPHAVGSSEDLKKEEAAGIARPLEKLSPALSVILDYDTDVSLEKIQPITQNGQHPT
Experiment: HTRF Ki determination at D1R
Type: binding
Details: n = 6, ± SD; n.d. = not determinable (highest concentration 100 µM)
Method: as §1, §4, §2, §3

Row | SMILES | Ki [nM] | Ki D1R
37 | COc1ccccc1N1CCN(CCCCNC(=O)c2ccc(Cl)cc2)CC1 [Compound 10] | 2380 ± 130 | 
38 | NS(=O)(=O)c1ccc(CCNCc2ccc(-c3cc(Cl)ccc3Cl)o2)cc1 [Compound 3] |  | inactive
39 | CN1CCN(C2Cc3ccc(O)cc3Sc3ccc(Cl)cc32)CC1 (stereo not drawn) [Compound 2] | 9 ± 2 | 
40 | O[C@H](CNCCNc1ccc(C(F)(F)F)cn1)CSc1ccc(F)cc1 [Compound 7] | 8330 ± 2170 | 

Next, values leading:

Row | Ki [nM] | Ki D1R | SMILES
41 | 46900 ± 27400 |  | CCN(CCC(=O)Nc1cccc(OC)c1)Cc1ccccc1 [Compound 5]
42 | 7760 ± 4410 |  | O=C(CCN1CCN(c2ccccc2F)CC1)Nc1cccc(F)c1 [Compound 6]
43 | 9460 ± 1180 |  | NC(=O)c1ccccc1OCCCN1CCN(c2ccccc2)CC1 [Compound 9]

Target: T3, D1R
Experiment: HTRF competitive binding screening (NDF) at D1R carrier cells
Details: 10 µM, n = 4, fluorescence decrease normalized to the control
Method: as §1, §4, §5

Row | SMILES | Normalized Decrease in Fluorescence (NDF) ± SD, D1R
44 | COc1ccccc1N1CCN(CCCCNC(=O)c2ccc(Cl)cc2)CC1 [Compound 10] | 2.59 ± 1.04
45 | NS(=O)(=O)c1ccc(CCNCc2ccc(-c3cc(Cl)ccc3Cl)o2)cc1 [Compound 3] | 1.78 ± 1.35
46 | CN1CCN(C2Cc3ccc(O)cc3Sc3ccc(Cl)cc32)CC1 (stereo not drawn) [Compound 2] | 5.46 ± 1.97
47 | O[C@H](CNCCNc1ccc(C(F)(F)F)cn1)CSc1ccc(F)cc1 [Compound 7] | 1.57 ± 0.54

Other lines, results leading:

Row | Normalized Decrease in Fluorescence (NDF) ± SD, D1R | SMILES
48 | 1.26 ± 0.64 | CCN(CCC(=O)Nc1cccc(OC)c1)Cc1ccccc1 [Compound 5]
49 | 2.15 ± 1.16 | O=C(CCN1CCN(c2ccccc2F)CC1)Nc1cccc(F)c1 [Compound 6]
50 | 1.71 ± 0.86 | NC(=O)c1ccccc1OCCCN1CCN(c2ccccc2)CC1 [Compound 9]

Target: T1, D2R
Experiment: not given
Details: 10 µM, n = 4, normalized to the control; cited from earlier work

Row | SMILES | Normalized Decrease in Fluorescence (NDF) ± SD, D2R
51 | COc1ccccc1N1CCN(CCCCNC(=O)c2ccc(Cl)cc2)CC1 [Compound 10] | 22.89 ± 8.41
52 | CCN(CCC(=O)Nc1cccc(OC)c1)Cc1ccccc1 [Compound 5] | 15.74 ± 18.15
53 | NS(=O)(=O)c1ccc(CCNCc2ccc(-c3cc(Cl)ccc3Cl)o2)cc1 [Compound 3] | 3.99 ± 2.58
54 | O=C(CCN1CCN(c2ccccc2F)CC1)Nc1cccc(F)c1 [Compound 6] | 8.18 ± 3.62
55 | NC(=O)c1ccccc1OCCCN1CCN(c2ccccc2)CC1 [Compound 9] | 22.08 ± 6.62
56 | CN1CCN(C2Cc3ccc(O)cc3Sc3ccc(Cl)cc32)CC1 (stereo not drawn) [Compound 2] | 40.41 ± 1.39
57 | O[C@H](CNCCNc1ccc(C(F)(F)F)cn1)CSc1ccc(F)cc1 [Compound 7] | 10.85 ± 4.93
